Consider seven compounds from patent US20100099109A1, “Methods for Analyzing Drug Response” (NODALITY, INC., A DELAWARE CORPORATION, priority 2008, published 2010).

Data set [1] has as its system Mylotarg sensitive cell lines. Put plainly: Mylotarg exposure and modulated signaling in sensitive cell lines. It is filed as cell-based. The following applies: exposed for 5-15 minutes. The procedure:
(§1) The experimental measurements included forward and side scatter, the use of viability dyes (amine aqua and propidium iodide (PI)), and determination of cell cycle and apoptosis by measuring DNA content with DRAQ5. Additionally, cell cycle progression was measured by determining levels of cyclin B1, phosphorylated histone H3, and phosphorylated CDK-1. All these determinations were made in freshly thawed as well as in cultured cycling cells.
(§2) After incubation with fluorochrome-conjugated antibody panels that recognized: p-H2AX, p-Chk2, p-ATM, p-53, cleaved PARP and cleaved caspase 3, cells were processed for cytometry as described above.
(§3) Experiments were conducted in which cell lines were exposed for 5-15 minutes to growth factors and cytokines, after which cells were fixed, permeabilized and incubated with panels of fluorochrome-conjugated antibody panels that recognized intracellular signaling molecules. After processing, cells were acquired on the cytometer.

Data set [2] concerns Mylotarg refractory cell lines. Put plainly: Mylotarg exposure and modulated signaling in resistant cell lines. It is filed as cell-based. The following applies: exposed for 5-15 minutes. How it is done: as §1, §2, §3
Data set [3] concerns MDR1 drug pump activity in U937 cells. Put plainly: Functional drug transporter assay (DIOC2(3) efflux). It is filed as cell-based. The following applies: Mylotarg sensitive cell line U937. How it is done: (§4) Determination of transporter functional activity: Transporter activity is measured in subpopulations gated for CD45, CD11b, CD34, CD38, and other surface markers including drug transporters themselves. Fluorescent dyes including calcein-acetoxymethyl ester in the presence or absence of inhibitors cyclosporin or PSC-833 for MDR1, reserpine for BCRP-1 and MK571 or probenecid for MRP-1) are used to evaluate the contribution of each transporter to drug efflux
(§5) Cells are thawed, counted and resuspended at 0.222×10^6/ml in RPMI 10% FBS. This example uses 100,000 cells in 450 microliters aliquoted into 6 columns of a 96 well Deep-Well “Cell Plate”. However, the experimental setup is not limited to using 100,000 cells/condition. KG-1 cells are included as a control since they express functional MDR-1.
(§6) 10× Inhibitor or 10× Mock Solutions are prepared by the following protocols: • 10×PSC-833. Stock Conc=2 mM=2000 uM. 10× Conc=20 uM (1:100). • Combine 25 uL stock with 2475 uL DPBS/0.5% BSA • Note Final Conc DMSO=0.1% • Could likely use a range of PSC-833 Concentrations not limited to 2 uM. • This experiment uses Final Concentration of 2 uM • 10×DMSO buffer (mock) • Combine 25 uL DMSO with 2475 uL DPBS/0.5% BSA […]

In data set [4] the target is T1, MDR1 drug pump activity in KG-1 cells (Homo sapiens, UniProt P08183).
T1 construct: KG-1 cells are included as a control since they express functional MDR-1; endogenous in cells; host or cells: KG-1 cells
The data set is described as above. The following applies: Mylotarg resistant KG-1 cells; co-incubation with inhibitor. The class given is cell-based. How it is done: as §4, §5, §6

In another data set the test system is U937 cell line. Put plainly: Mylotarg/Nocodazole exposure, multiparameter flow cytometry of DNA damage, cell cycle and apoptosis. It is filed as cell-based. The following applies: 24 hours exposure.
From the text: ATM activity also phosphorylates Chk2 and p53. […] Cyclin B1 is produced during the G2 phase of the cell cycle and its accumulation drives the cell cycle into M phase. Therefore, low levels of Cyclin B1 mark G1 and S phases, high levels mark G2 phase, and higher levels mark M phase. Histone H3 (S28) becomes phosphorylated in M phase, making p-Histone H3(S28) a useful marker of cells in M phase and not G2. It is also possible to monitor the G2/M phases of the cell cycle by measuring the phosphorylation status of Cdk1, previously known as Cdc2, a cyclin-dependent protein kinase that controls the cell cycle entry from G2 to M phase. An inhibitory phosphorylation on Cdk1 is removed by CDC25C in the M phase transition, allowing G2 cells to be distinguished from M cells based on levels of p-Cdk1. […] Treating cells with the microtubule polymerization inhibitor Nocodazole induces cells cycle arrest in M phase without DNA damage.
as §1, §2
(In general: Flow cytometry measures light scatter and fluorescence of single cells or particles in a stream.)

The conditions of data set [5]: cited from earlier work.

“Also recorded” adds a separate entry of the source. Like-named read-outs stand apart in the source and are kept apart here.

T1 sequence (P08183 whole entry): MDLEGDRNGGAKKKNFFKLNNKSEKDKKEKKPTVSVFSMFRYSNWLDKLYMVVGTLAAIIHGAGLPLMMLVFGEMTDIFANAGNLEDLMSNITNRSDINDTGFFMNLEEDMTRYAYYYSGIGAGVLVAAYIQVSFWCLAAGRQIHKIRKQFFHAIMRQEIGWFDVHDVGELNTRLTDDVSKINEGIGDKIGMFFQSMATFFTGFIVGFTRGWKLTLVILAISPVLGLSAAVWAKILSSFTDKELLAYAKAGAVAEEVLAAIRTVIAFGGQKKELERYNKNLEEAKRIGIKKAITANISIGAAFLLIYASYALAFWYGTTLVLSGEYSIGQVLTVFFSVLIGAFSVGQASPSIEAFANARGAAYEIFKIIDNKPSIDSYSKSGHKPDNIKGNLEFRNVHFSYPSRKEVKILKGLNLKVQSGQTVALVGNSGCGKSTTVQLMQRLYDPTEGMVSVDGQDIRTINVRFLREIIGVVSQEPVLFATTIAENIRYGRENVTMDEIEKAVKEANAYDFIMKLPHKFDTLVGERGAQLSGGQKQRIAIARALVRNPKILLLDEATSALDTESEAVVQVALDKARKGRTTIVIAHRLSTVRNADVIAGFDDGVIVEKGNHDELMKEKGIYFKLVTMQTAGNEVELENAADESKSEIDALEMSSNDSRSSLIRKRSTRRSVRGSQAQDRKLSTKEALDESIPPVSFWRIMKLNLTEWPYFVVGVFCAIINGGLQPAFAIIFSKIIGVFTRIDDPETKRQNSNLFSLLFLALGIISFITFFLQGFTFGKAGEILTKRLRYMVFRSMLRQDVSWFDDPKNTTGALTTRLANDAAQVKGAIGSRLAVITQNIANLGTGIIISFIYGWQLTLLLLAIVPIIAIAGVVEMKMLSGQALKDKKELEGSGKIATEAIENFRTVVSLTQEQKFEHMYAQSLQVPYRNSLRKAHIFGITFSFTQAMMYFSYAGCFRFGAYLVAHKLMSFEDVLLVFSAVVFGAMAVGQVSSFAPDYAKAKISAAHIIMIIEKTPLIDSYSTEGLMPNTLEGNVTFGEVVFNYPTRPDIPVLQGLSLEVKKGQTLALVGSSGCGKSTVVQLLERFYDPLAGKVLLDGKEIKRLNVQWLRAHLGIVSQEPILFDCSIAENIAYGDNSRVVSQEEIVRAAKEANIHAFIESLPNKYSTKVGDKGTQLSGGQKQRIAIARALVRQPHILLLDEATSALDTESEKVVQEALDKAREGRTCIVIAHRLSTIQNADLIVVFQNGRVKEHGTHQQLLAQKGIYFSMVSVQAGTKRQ

Take “IL-6: cytokine modulator of JAK/STAT pathways”: in data set [1], the “IL-6 mediated p-Stat1” value is “increased”. Take `CCCCCCCCCCCCCC(=O)O[C@@H]1[C@@H](C)[C@@]2(O)[C@@H](C=C(CO)C[C@]3(O)C(=O)C(C)=C[C@@H]23)[C@@H]2C(C)(C)[C@]12OC(C)=O` [PMA, phorbol myristic acetate]: in data set [2], the “PMA-mediated p-S6” value is “increase in p-S6”. As for `C/C=C/C[C@@H](C)C(=O)[C@H]1C(=O)N[C@@H](C(C)C)C(=O)N(C)CC(=O)N(C)[C@@H](CC(C)C)C(=O)N[C@@H](C(C)C)C(=O)N(C)[C@@H](CC(C)C)C(=O)N[C@@H](C)C(=O)N[C@H](C)C(=O)N(C)[C@@H](CC(C)C)C(=O)N(C)[C@@H](CC(C)C)C(=O)N(C)[C@@H](C(C)C)C(=O)N1C` [PSC-833], the “effect on intracellular levels of DIOC2(3)” value in data set [3] is given as “no effect”. Further, the “effect on MDR1 drug pump activity / intracellular levels of DIOC2(3)” value in data set [4] is listed as “blocked; also recorded: significant increase in intracellular reporter”.

Consider “SCF: growth factor/cytokine modulator of PI3K, Ras/Raf pathways”, for which the “SCF-mediated p-Akt, p-Erk, and p-S6” value in data set [2] is recorded as “increase”.

For the compound `COC(=O)Nc1nc2cc(C(=O)c3cccs3)ccc2[nH]1` [Nocodazole], the “cell cycle arrest (Cyclin B1, p-Histone H3(S28), p-Cdk1)” value with U937 cell line is reported as “arrest in M rather than G2”. Turning to `COc1cccc2c1C(=O)c1c(O)c3c(c(O)c1C2=O)C[C@@](O)(C(C)=O)C[C@@H]3O[C@H]1C[C@H](N)[C@H](O)[C@H](C)O1` [Daunorubicin], the peak plasma concentration in data set [5] (25 mg/m2) is 50 ng/mL; in data set [5] (50 mg/m2), 200 ng/mL. Consider `Nc1ccn([C@@H]2O[C@H](CO)[C@@H](O)[C@@H]2O)c(=O)n1` [Cytarabine], for which the peak plasma concentration in data set [5] (high dose, 3 g/m2) was 2 µM; in data set [5] (standard dose, 100 mg/m2), “approximately 40 nM”.
